The numbers were not newly measured in article PMC7507806 (ACS Pharmacology & Translational Science, 2020), which cites them from elsewhere.

Holding throughout (conditions): cited from earlier work
For one data set, the target named is SARS-CoV-2 3CL^pro (Severe acute respiratory syndrome coronavirus 2, UniProt P0DTD1).
For another data set, the system named is SARS-CoV-2.
Another data set relates to SARS-CoV-2 virus.

SMILES strings stand for the structures.

With `Cc1cccc(C)c1OCC(=O)N[C@@H](Cc1ccccc1)[C@@H](O)C[C@H](Cc1ccccc1)NC(=O)[C@H](C(C)C)N1CCCNC1=O` [Lopinavir], the “inhibition of 3CL^pro” value on SARS-CoV-2 3CL^pro is reported as “did not show inhibition”.

Turning to `Cc1cc(C(=O)N[C@@H](C)C(=O)N[C@H](C(=O)N[C@@H](CC(C)C)C(=O)NC(/C=C/C(=O)OCc2ccccc2)C[C@@H]2CCNC2=O)C(C)C)no1` (some centres unmarked) [N3], in the data set on SARS-CoV-2, the “antiviral activity in viral RNA quantification and plaque-reduction assays” value was “strongest antiviral activity”.

As to `CCCC(NC(=O)C(CC(C)C)NC(=O)OCc1ccccc1)C(=O)C(=O)NCc1ccccn1` (centres unmarked) [calpain inhibitor XII], in the data set on SARS-CoV-2 virus, the “activity in CPE and viral yield reduction assays” value is “active in both CPE and viral yield reduction assays”.

For the molecule `O=c1c2ccccc2[se]n1-c1ccccc1` [ebselen], the “antiviral activity in viral RNA quantification and plaque-reduction assays” value in the data set with SARS-CoV-2 was “strongest antiviral activity”.

For the molecule `CC(C)c1nc(CN(C)C(=O)N[C@H](C(=O)N[C@@H](Cc2ccccc2)C[C@H](O)[C@H](Cc2ccccc2)NC(=O)OCc2cncs2)C(C)C)cs1` [ritonavir], the “inhibition of 3CL^pro” value at SARS-CoV-2 3CL^pro is listed as “did not show inhibition”.
